The text below walks through data of patent US6613307B1, “Aerosol formulations of salmeterol xinafoate” (SmithKline Beecham Corporation, priority 1998, dated 2003).

Structures are written as SMILES. A value given as a limit tells only on which side of the number the result lay.

Format in all cases: physicochemical
A short description of data set [1]: Reproducibility: particle size and distribution by laser diffraction (Malvern Mastersizer), Example 11. The following applies: 300 bar, 35° C., acetone 0.6% w/v; for Mean Particle Size: two different days. Here is the method: Two different solutions of salmeterol xinafoate in acetone (0.6% w/v) were made and each solution was co-introduced with CO2 via a coaxial nozzle into the particle formation vessel using the apparatus described on two different days to give samples A and B. The operating conditions were 300 bar and 35° C., with flow rates of 0.2 ml/min for the salmeterol solution and 6 ml/min for the supercritical CO2. The crystallised salmeterol xinafoate provided from each solution was examined for particle size and size distribution.

Data set [2] can be described thus: Scanning electron microscopy of particles. The following applies: SEM; needle shaped particles from isopropanol (0.2% w/v), 150 bar, 60° C. Here is the method:
In another experiment, a solution of salmeterol xinafoate in isopropanol (0.2% w/v) was co-introduced with CO2 at 150 bar and 60° C. via a coaxial nozzle into the particle formation vessel using the apparatus described and shown in FIG. 1. The dry, easily handlable product without significant static charge was examined by SEM (see FIG. 16) and found to be composed of needle shaped particles with a maximum particle dimension of up to 300 microns. Thus by controlling and changing the working conditions of the particle formation process, salmeterol xinafoate products composed of particles with different particle sizes and size distributions were produced.

Data set [3] in a line: Dynamic bulk density (fluidisability) of salmeterol xinafoate powders. The following applies: powder. The method, then: The dynamic bulk density (W) is indicative of a substance's fluidisability and is defined as: [formula]
where P is the packed bulk density (g.cm^−3), A is the aerated bulk density (g.cm^−3) and C is the compressibility (%) where C is calculated by the equation: [formula]
Conventionally crystallised salmeterol xinafoate, both before and after micronisation, was compared against salmeterol xinafoate made by the supercritical fluid method described herein. A solution of salmeterol xinafoate in acetone (0.63% w/v) was co-introduced with CO2 at 300 bar and 45° C. via a coaxial nozzle into the particle formation vessel using the apparatus described and shown in FIG. 1 to give sample 1. A solution of salmeterol xinafoate in acetone (0.50% w/v) was cointroduced with CO2 at 100 bar and 55° C. via a coaxial nozzle into the particle formation vessel using the apparatus described and shown in FIG. 1 to give sample 2. In each case, the solution flow rate was 0.4 ml/min and supercritical CO2 was co-introduced into the particle formation vessel at a flow rate of 9 ml/min.
The dynamic bulk densities are shown below in Table 2: […]

Data set [4] in a line: Particle size analysis by laser diffraction (Malvern Mastersizer E), Example 3. Here is the method: A solution of salmeterol xinafoate in acetone (0.6% w/v) was co-introduced with CO2 at 200 bar and 55° C. via a coaxial nozzle into the particle formation vessel using the apparatus described and shown in FIG. 1. A series of products was obtained by changing the flow rate ratio of salmeterol xinafoate solution/supercritical CO2, where the flow ratio is defined as: [formula]
The flow ratio was changed between 0.01 and 0.07, with a flow rate of 9 ml/min for the supercritical CO2.
The resultant dry, easily handlable products without significant static charge were examined by scanning electron microscopy (SEM) and by laser diffraction (Malvern Mastersizer E) for particle size analysis (see FIGS. 12-15).
The uniformity index is defined as: [formula]

Data set [5] is described as follows: Relative static charge: drug remaining coated to vial walls after rolling. The following applies: after rolling drug in vial for 5 minutes. Here is the method:
Using samples prepared as described in Example 1, a simple test was devised to determine their relative static charge based on the quantity of drug remaining coated to the walls of a vial after rolling a predetermined quantity of drug in the vial for 5 minutes. The greater the drug remaining on the vial, the higher the relative static charge associated with the drug substance.

Turning to `OCc1cc(C(O)CNCCCCCCOCCCCc2ccccc2)ccc1O` (single isomer, unassigned) [Sample A, salmeterol xinafoate], in data set [1], the “% < 5 microns” value is 31.6%, the “% < 10 microns” value is given as 67.8%, the “Uniformity index” value worked out at 9 and the “Mean Particle Size” value was found to be 7.2 Microns.
As to `OCc1cc(C(O)CNCCCCCCOCCCCc2ccccc2)ccc1O` (stereo not drawn) [salmeterol xinafoate, 4-hydroxy-α^1-[[[6-(4-phenylbutoxy)hexyl]amino]methyl]-1,3-benzenedimethanol (salmeterol) 1-hydroxy-2-naphthalenecarboxylate (xinafoate)], the maximum particle dimension entry in data set [2] was “up to 300 microns”.
For `OCc1cc(C(O)CNCCCCCCOCCCCc2ccccc2)ccc1O` (stereo not shown) [SCF salmeterol xinafoate (sample 2), salmeterol xinafoate], in data set [3], the “Dynamic Bulk Density W” value came to 0.059 g · cm^−3. Besides, in data set [4], the “% < 5 μm” value was found to be 5.7%, the “% < 10 μm” value came to 16.1%, the “Mean Particle Size” value was 18.84 μm and the Uniformity index is recorded as 19.2. Further, the “% Drug Retaining on Vial” value in data set [5] (sample 2) was 5.7%.
In the case of `OCc1cc(C(O)CNCCCCCCOCCCCc2ccccc2)ccc1O` (stereo not shown) [conventionally crystallised salmeterol xinafoate (non-micron] [reference compound], in data set [3], the “Dynamic Bulk Density W” value is 0.312 g · cm^−3.
Consider `OCc1cc(C(O)CNCCCCCCOCCCCc2ccccc2)ccc1O` (stereo not shown) [Conventionally crystallised salmeterol xinafoate (micronised] [reference compound], for which the “Dynamic Bulk Density W” value in data set [3] is listed as 0.137 g · cm^−3. For the same compound, in data set [4], the “% < 5 μm” value was greater than 90%, the “% < 10 μm” value was greater than 95%, the “Mean Particle Size” value is listed as 1-3 μm and the Uniformity index worked out at 13.1. Moreover, the “% Drug Retaining on Vial” value in data set [5] is 7.0%.
In the case of `OCc1cc(C(O)CNCCCCCCOCCCCc2ccccc2)ccc1O` (single isomer, unassigned) [Sample B, salmeterol xinafoate], in data set [1], the “% < 5 microns” value is reported as 28.3%, the “% < 10 microns” value is 64.5%, the “Uniformity index” value was 9 and the “Mean Particle Size” value was determined as 7.7 Microns.
For `OCc1cc(C(O)CNCCCCCCOCCCCc2ccccc2)ccc1O` (stereo not shown) [SCF salmeterol xinafoate (sample 1), salmeterol xinafoate], the “Dynamic Bulk Density W” value in data set [3] came to 0.033 g · cm^−3. For the same compound, in data set [4], the “% < 5 μm” value came to 66.0%, the “% < 10 μm” value was 94.5%, the “Mean Particle Size” value is given as 3.85 μm and the Uniformity index is reported as 10.2. Further, in data set [5] (sample 1), the “% Drug Retaining on Vial” value was determined as 2.5%.
